Reference: paper PMC11795524, “Melanin-Binding-Based Discovery of Topically Instilled Carbonic Anhydrase Inhibitors for Targeted Delivery and Prolonged Action in the Eye” (Molecular Pharmaceutics, 2025)
“And” between values parts separate entries of the source, which are not always exact repeats. Identical values can stand only once.

Assays:
[1] = Ocular pharmacokinetics in pigmented rats (iris-ciliary body, 3H-A01); assay type: in vivo, rat; conditions: for bound fraction: pigmented tissue
Source text: Eight albino rats (RccHan/Wist) and 18 pigmented rats (HsdOla/LH) were obtained from Envigo Laboratories B.V. (The Netherlands) and were used in pharmacokinetic experiments. Additional 13 albino and 13 pigmented rats were used in generation of the analytical standards. Young adult (3–4 months; 340–445 g) rats were used.
To conduct the pharmacokinetic study, bromo-containing CAI A15 (molecular structure presented in Table 1) was conveniently converted into [^3H]-A01 through catalytic dehalogenation in tritium gas. A15 (3.05 mg, 8.2 μmol) was dissolved in dimethylformamide (0.3 mL) and exposed to 99 mbar of tritium gas in a tritium manifold system for 1.5 h in the presence of 10% palladium on carbon (0.57 mg). Following filtration, the reaction mixture underwent double lyophilization with 1 mL ethanol to eliminate labile tritium. […] The crude material was purified via high-performance liquid chromatography, employing a Reprosil-Pur C18-HD column (250 × 10 mm, 5 μm), with a mobile phase comprising 40% acetonitrile in 50 mM ammonium hydrogen carbonate. Purified fractions were subsequently combined, subjected to solid-phase extraction, and eluted with ethanol. Radiochemical analysis indicated a purity exceeding 97%, with a molar activity of 0.29 TBq/mmol (7.9 Ci/mmol) and a total activity of 850 MBq (23 mCi). The solution of 1% A01 (10 mg/mL) was prepared similarly as in the IOP study (see Table 1) except that the solution contained also 72 μg/mL of [^3H]–A01 (specific activity 27.21 mCi/mg). The solution was prepared freshly for each experiment.
Seven μL of A01 solution (10 mg/mL including 72 μg/mL of ^3H–A01) was topically applied to both eyes of albino and pigmented rats. Rats were euthanized with carbon dioxide and cervical dislocation. The eyes (n = 4) of albino rats were collected 0.5, 2, 4, and 7 h after treatment. The eyes of pigmented rats were dissected 0.5, 2, 4, 7, 24, 48, 72, 144, and 240 h after eye drop instillation. The eyes were enucleated and dissected immediately after euthanasia. Iris-ciliary body was dissected, snap frozen on dry ice, and stored at −80 °C until analysis. The analyses were conducted within 24 h from tissue dissection.
Bound and unbound radioactivity of tritiated A01 was determined from dissected iris-ciliary body samples. First, the tissues were mechanically homogenized and diluted with 0.9% sodium chloride (weight ratio 35:1). Then, cellular unbound A01 was released from the iris-ciliary body cells by freezing and thawing the solutions three times with dry ice and a water bath (37 °C). Thereafter, the supernatant and pellet were separated by centrifuging the samples for 10 min at 13,000 rpm. The pellets were dissolved by using 60 min incubation in 100 μL of Solvable (PerkinElmer, Waltham, MA, USA). The samples were then bleached with 10 μL of hydrogen peroxide for 30 min. The pellet volume was calculated as the difference between the total and supernatant volumes.
After subtracting the background radioactivity, the measured net counts per minute (cpm) were converted to disintegrations per minute (dpm) taking into account color quenching and device efficiency. Standard curves were generated for each matrix (albino and pigmented supernatants and pellets; Appendix Figure 1). Finally, unbound, bound, and total A01 concentrations (ng/mg) in the iris-ciliary body of the […] were calculated using radioactivity (nCi) per μg of instilled A01 in the eye drops. Signal to noise ratios of measured pellet and supernatant samples in liquid scintillation counting are shown in Appendix Table 3.

[2] = In vitro melanin binding by microscale thermophoresis / initial fluorescence (Monolith NT.115 pico)
Source text: Melanin binding of the CAI-II compounds was studied with a Monolith NT.115 pico (NanoTemper Technologies GmbH, Munich, Germany) device using the method of […] et al. […] Otherwise, normalized fluorescence signals and the ratio of relative fluorescence after heating (MST mode) were used. The MST software was used in expert mode to allow heating for 30 s. […] As ligand autofluorescence may interfere with the assay, their autofluorescence values were pretested with the detector used in experiment (nanoblue or pico-red). Fluorescence of the ligand should be below 20% of melanin fluorescence. Sample aggregation and adsorption to the capillaries were used also as exclusion criteria.

[3] = tested on: albino rabbits (New Zealand White); assay: IOP study in albino rabbits after single eye drop; assay type: in vivo, rabbit; conditions: single 25 μL eye drop; CAI 0.5 or 1.0%, dorzolamide 2%; n = 5
Protocol: Five 3–5 months old albino (New Zealand White, all females) and five 3–6 months old pigmented rabbits (Chinchilla Bastard, 1 male and 4 females) were purchased from Charles River Laboratories, UK and Germany, respectively. Prior to the experiments, the rabbits were habituated to handling, and the baseline values of IOP were measured. During the experiments, rabbits weighed 2.4–4.0 kg.
First, stock solutions of CAIs (250 mg/mL) in dimethyl sulfoxide (Sigma-Aldrich, Germany) were prepared. These stock solutions were diluted with PBS (pH 7.4) to obtain 1 mg/mL (0.1%) or 10 mg/mL (1%) solutions. Water-solubility of the compounds was enhanced with 2-hydroxypropyl-β-cyclodextrin (Sigma-Aldrich, Germany) (Table 1).
The CAI solutions were tested in albino rabbits (eye drops of 0.1, and 0.5 or 1.0%) and in pigmented rabbits (0.5 or 1.0%). The novel CAI concentrations in solutions were determined based on the drug solubility with the aim to load the highest possible drug concentration to the single eye drop.
The IOP levels in the rabbits were measured with a tonometer (Tonometer Pro, Icare Finland Ltd.). After baseline IOP measurements, a single eye drop (25 μL) was applied to the left eye, whereas the right eye was not treated. After eye drop instillation, the eyelids were kept open manually for 1 min. The IOP was measured from both eyes of the rabbits at 0.5, 1, 2, 3, 4, 5, 6, 7, and 8 h after eye drop instillation. In the case of the pigmented rabbits, the measurements were continued until 10 h postinstillation, and further until the IOP had returned to the normal baseline.
The CAIs were tested in the same rabbits to minimize interindividual data variation. Washout periods of at least 3 days were used between instillation of different compounds. The experiments started always at 8 a.m. to eliminate bias due to diurnal IOP fluctuation. At each time point, the pressure was measured three times with the same eye, and the average values were calculated and used in data analysis.

[4] = iris-ciliary body, single topical eye drop

For `C/C(=N\Nc1ccc(S(N)(=O)=O)cc1)c1cccnc1` [A01], the concentration at 2 h ([1]; HsdOla/LH (pigmented), rat, topical, 7 µL of 10 mg/mL solution per eye, pigmented iris-ciliary body, 2 h after administration, read-out: bound concentration at 2 h) was ~500 ng/g, the concentration at 10 days ([1]; HsdOla/LH (pigmented), rat, topical, 7 µL of 10 mg/mL solution per eye, pigmented iris-ciliary body, 10 days, read-out: bound concentration C10 days) was 20 ng/g and the “exposure ratio (AUCpigm/AUCalbino), bound A01” value ([1]; iris-ciliary body) was 150 and 149.8. For the same molecule, the “exposure ratio (AUCpigm/AUCalbino), total A01” value ([1]; iris-ciliary body) was 18, the “exposure ratio (AUCpigm/AUCalbino), unbound A01” value ([1]; iris-ciliary body) was 9.3 and the “AUC0-last in pigmented tissue, bound A01” value [1, 4] was 12.73 (ng/mg) × h. For the same molecule, the “AUC0-last in pigmented tissue, total A01” value [1, 4] was 24.72 (ng/mg) × h, the “AUC0-last in pigmented tissue, unbound A01” value [1, 4] was 11.98 (ng/mg) × h and the “tmax (bound drug)” value ([1]; pigmented eyes) was 24 h. The “tmax(total drug)” value ([1]; pigmented eyes) was 24 h, the “Cmax, total concentration” value ([1]; pigmented iris-ciliary body, at 24 h) was 0.36 ng/mg and the “time over which slow elimination continued” value ([1]; pigmented iris-ciliary body, total drug) was ≥ 10 days. For the same molecule, the “time over which unbound levels were extended” value ([1]; pigmented iris-ciliary body, below quantitation limit at 6 days) was “at least 3 days”, the unbound concentrations ([1]; pigmented rat iris-ciliary body) was 0.01 to 0.8 µM and the bound fraction ([1]; for 72 h) was 37–62%. The bound fraction ([1]; later than 72 h) was “about 90%”, the Melanin binding classification ([2]; class by Kd) was “high (high (<65 μM))” and the Kd ([2]; melanin nanoparticles 0.5 mg/mL, IF or MST mode, 68% confidence, read-out: Kd ± confidence (melanin binding)) was 48 ± 13 µM. For the same molecule, the “AUC0-last ± SD in albino rabbits (IOP decrease vs time)” value [3] was 19.95 ± 7.16 mmHg x h.
